Source: PubChem BioAssay AID248 (DTP/NCI, 2004)
“And” between values parts separate entries of the source, which are not always exact repeats. Identical values can stand only once. Toxic doses and inconclusive results are not listed.

System: L1210 leukemia ip in BDF1 mice, survival T/C
Assay: NCI In Vivo Anticancer Drug Screen. Data for tumor model L1210 Leukemia (intraperitoneal) in B6D2F1 (BDF1) mice
Details: endpoint: mean survival time, higher = longer survival
In short: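 Transplantable tumor model; survival measured in treated vs vehicle control mice. Value = treated/control.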

[1] = dose: 100.0 mg/kg/injection, schedule: Q01DX001 (ip), vehicle: saline
[2] = dose: 100.0 mg/kg/injection, schedule: Q01DX009 (ip), vehicle: saline
[3] = dose: 200.0 mg/kg/injection, schedule: Q01DX001 (ip), vehicle: saline
[4] = dose: 200.0 mg/kg/injection, schedule: Q01DX009 (ip), vehicle: saline
[5] = dose: 400.0 mg/kg/injection, schedule: Q01DX001 (ip), vehicle: saline
[6] = dose: 100.0 mg/kg/injection, schedule: Q04DX003 (ip), vehicle: Klucel (hydroxypropylcellulose) (HPC)
[7] = dose: 200.0 mg/kg/injection, schedule: Q04DX003 (ip), vehicle: Klucel (hydroxypropylcellulose) (HPC)
[8] = dose: 400.0 mg/kg/injection, schedule: Q04DX003 (ip), vehicle: Klucel (hydroxypropylcellulose) (HPC)
[9] = dose: 100.0 mg/kg/injection, schedule: Q01DX001 (ip), vehicle: carboxymethylcellulose (CMC)
[10] = dose: 200.0 mg/kg/injection, schedule: Q01DX001 (ip), vehicle: carboxymethylcellulose (CMC)
[11] = dose: 400.0 mg/kg/injection, schedule: Q01DX001 (ip), vehicle: carboxymethylcellulose (CMC)
[12] = dose: 100.0 mg/kg/injection, schedule: Q04DX002 (ip), vehicle: Klucel (hydroxypropylcellulose) (HPC)
[13] = dose: 200.0 mg/kg/injection, schedule: Q04DX002 (ip), vehicle: Klucel (hydroxypropylcellulose) (HPC)
[14] = dose: 100.0 mg/kg/injection, schedule: Q04DX003 (ip), vehicle: saline with Tween-80
[15] = dose: 200.0 mg/kg/injection, schedule: Q04DX003 (ip), vehicle: saline with Tween-80
[16] = dose: 400.0 mg/kg/injection, schedule: Q04DX003 (ip), vehicle: saline with Tween-80

Structure (SMILES): CCOC(=O)COc1ccc(N2C(N)=NC(N)=NC2(C)C)cc1
- T/C [1]: 107 % of control
- T/C [2]: 117 % of control
- T/C [3]: 102 % of control
- T/C [4]: 98 % of control
- T/C [5]: 97 % of control
- T/C (dose: 400.0 mg/kg/injection, schedule: Q01DX009 (ip), vehicle: saline): 104 % of control

Structure (SMILES): Cc1ccc(C)c(NC(=O)c2ccc(Cl)c(Cl)c2)c1
- T/C (dose: 1.5 mg/kg/injection, schedule: Q01DX009 (ip), vehicle: Klucel (hydroxypropylcellulose) (HPC)): 92 % of control
- T/C (dose: 3.0 mg/kg/injection, schedule: Q01DX009 (ip), vehicle: Klucel (hydroxypropylcellulose) (HPC)): 99 % of control
- T/C (dose: 6.0 mg/kg/injection, schedule: Q01DX009 (ip), vehicle: Klucel (hydroxypropylcellulose) (HPC)): 97 % of control
- T/C (dose: 6.25 mg/kg/injection, schedule: Q01DX009 (ip), vehicle: Klucel (hydroxypropylcellulose) (HPC)): 88 % of control
- T/C (dose: 50.0 mg/kg/injection, schedule: Q01DX009 (ip), vehicle: Klucel (hydroxypropylcellulose) (HPC)): 86 % of control
- T/C [6]: 93 % of control
- T/C [7]: 91 % of control
- T/C (dose: 400.0 mg/kg/injection, schedule: Q01DX009 (ip), vehicle: Klucel (hydroxypropylcellulose) (HPC)): 86 % of control
- T/C [8]: 90 % of control

Structure (SMILES): Clc1ccc(-c2nc3ccccc3cc2N2CCOCC2)cc1
- T/C [6]: 108 % of control
- T/C [7]: 103 % of control
- T/C [8]: 100 % of control

Structure (SMILES): COC1C(COC(C)=O)OC(n2cnc3c(=S)nc[nH]c32)C1OC(C)=O (centres undefined)
- T/C [9]: 114 % of control
- T/C [10]: 104 % of control
- T/C [11]: 111 % of control

Structure (SMILES): COc1ccc(C(=O)Nc2c(C)cccc2C)cc1
- T/C (dose: 100.0 mg/kg/injection, schedule: Q01DX009 (ip), vehicle: carboxymethylcellulose (CMC)): 94 % of control and 90 % of control
- T/C [12]: 112 % of control
- T/C (dose: 100.0 mg/kg/injection, schedule: Q04DX002 (ip), vehicle: carboxymethylcellulose (CMC)): 97 % of control and 108 % of control
- T/C (dose: 100.0 mg/kg/injection, schedule: Q04DX003 (ip), vehicle: carboxymethylcellulose (CMC)): 104 % of control
- T/C (dose: 200.0 mg/kg/injection, schedule: Q01DX009 (ip), vehicle: carboxymethylcellulose (CMC)): 94 % of control and 92 % of control
- T/C [13]: 108 % of control
- T/C (dose: 200.0 mg/kg/injection, schedule: Q04DX002 (ip), vehicle: carboxymethylcellulose (CMC)): 100 % of control and 101 % of control
- T/C (dose: 200.0 mg/kg/injection, schedule: Q04DX003 (ip), vehicle: carboxymethylcellulose (CMC)): 106 % of control
- T/C (dose: 400.0 mg/kg/injection, schedule: Q01DX009 (ip), vehicle: carboxymethylcellulose (CMC)): 94 % of control and 97 % of control
- T/C (dose: 400.0 mg/kg/injection, schedule: Q04DX002 (ip), vehicle: Klucel (hydroxypropylcellulose) (HPC)): 108 % of control
- T/C (dose: 400.0 mg/kg/injection, schedule: Q04DX002 (ip), vehicle: carboxymethylcellulose (CMC)): 103 % of control
- T/C (dose: 400.0 mg/kg/injection, schedule: Q04DX003 (ip), vehicle: carboxymethylcellulose (CMC)): 106 % of control

Structure (SMILES): NC(=O)c1nnc(-c2ccc(Cl)cc2)[nH]c1=O
- T/C [14]: 98 % of control
- T/C [15]: 98 % of control
- T/C [16]: 98 % of control

Structure (SMILES): O/N=c1/cc(-c2cccs2)ss1
- T/C (dose: 50.0 mg/kg/injection, schedule: Q01DX009 (ip), vehicle: saline): 86 % of control
- T/C [2]: 86 % of control
- T/C (dose: 100.0 mg/kg/injection, schedule: Q04DX003 (ip), vehicle: saline): 87 % of control
- T/C [4]: 98 % of control
- T/C (dose: 200.0 mg/kg/injection, schedule: Q04DX003 (ip), vehicle: saline): 95 % of control
- T/C (dose: 400.0 mg/kg/injection, schedule: Q04DX003 (ip), vehicle: saline): 95 % of control

Structure (SMILES): CC1CC(=O)C(CCC#N)=C(Cl)C1 (centres undefined)
- T/C (dose: 50.0 mg/kg/injection, schedule: Q01DX009 (ip), vehicle: saline with Tween-80): 100 % of control
- T/C (dose: 100.0 mg/kg/injection, schedule: Q01DX009 (ip), vehicle: saline with Tween-80): 96 % of control
- T/C (dose: 200.0 mg/kg/injection, schedule: Q01DX009 (ip), vehicle: saline with Tween-80): 96 % of control

Structure (SMILES): Cc1cc(C)c(O)c(C)c1.[Hg]
- T/C (dose: 12.5 mg/kg/injection, schedule: Q01DX001 (ip), vehicle: Klucel (hydroxypropylcellulose) (HPC)): 87 % of control

Structure (SMILES): O=C(CCC(=O)c1ccccc1)OCc1ccccc1
- T/C [12]: 96 % of control
- T/C [13]: 86 % of control

Structure (SMILES): Cc1cc(Cc2cc(C)cc(C(C)(C)C)c2O)c(O)c(Cc2cc(C)cc(C(C)(C)C)c2O)c1
- T/C (dose: 100.0 mg/kg/injection, schedule: Q01DX009 (ip), vehicle: gum acacia): 97 % of control
- T/C (dose: 100.0 mg/kg/injection, schedule: Q04DX003 (ip), vehicle: gum acacia): 91 % of control
- T/C (dose: 200.0 mg/kg/injection, schedule: Q01DX009 (ip), vehicle: gum acacia): 96 % of control
- T/C (dose: 200.0 mg/kg/injection, schedule: Q04DX003 (ip), vehicle: gum acacia): 96 % of control
- T/C (dose: 400.0 mg/kg/injection, schedule: Q01DX009 (ip), vehicle: gum acacia): 94 % of control
- T/C (dose: 400.0 mg/kg/injection, schedule: Q04DX003 (ip), vehicle: gum acacia): 96 % of control

Structure (SMILES): NC(C(=O)O)C(O)C(=O)O (centres undefined)
- T/C (dose: 75.0 mg/kg/injection, schedule: Q04DX003 (ip), vehicle: saline): 98 % of control
- T/C (dose: 150.0 mg/kg/injection, schedule: Q04DX003 (ip), vehicle: saline): 98 % of control
- T/C (dose: 300.0 mg/kg/injection, schedule: Q04DX003 (ip), vehicle: saline): 96 % of control

Structure (SMILES): O=C(NC(C(=O)SC1=NC=NC2=NC=NC21)C(SC1=NC=NC2=NC=NC21)c1cccnc1)c1ccccc1 (centres undefined)
- T/C (dose: 37.5 mg/kg/injection, schedule: Q01DX Z (ip), vehicle: saline): 153 % of control

Structure (SMILES): O=C(NCc1ccccc1)NCc1ccccc1
- T/C (dose: 100.0 mg/kg/injection, schedule: Q01DX001 (ip), vehicle: Klucel (hydroxypropylcellulose) (HPC)): 112 % of control
- T/C (dose: 200.0 mg/kg/injection, schedule: Q01DX001 (ip), vehicle: Klucel (hydroxypropylcellulose) (HPC)): 97 % of control
- T/C (dose: 400.0 mg/kg/injection, schedule: Q01DX001 (ip), vehicle: Klucel (hydroxypropylcellulose) (HPC)): 105 % of control

Structure (SMILES): COC(=O)C1=C(N)CCc2ccccc21
- T/C [14]: 97 % of control
- T/C [15]: 103 % of control
- T/C [16]: 101 % of control

Structure (SMILES): CN(C)C(=S)SCC(=O)[O][Sn]([c]1ccccc1)([c]1ccccc1)[c]1ccccc1
- T/C (dose: 6.25 mg/kg/injection, schedule: Q04DX002 (ip), vehicle: saline with Tween-80): 96 % of control
- T/C (dose: 12.5 mg/kg/injection, schedule: Q04DX002 (ip), vehicle: saline with Tween-80): 93 % of control
- T/C (dose: 25.0 mg/kg/injection, schedule: Q04DX002 (ip), vehicle: saline with Tween-80): 104 % of control

Structure (SMILES): Cc1cc(C)c(C)[nH]1
- T/C (dose: 6.25 mg/kg/injection, schedule: Q01DX009 (ip), vehicle: water): 104 % of control
- T/C (dose: 12.5 mg/kg/injection, schedule: Q01DX009 (ip), vehicle: water): 101 % of control
- T/C (dose: 25.0 mg/kg/injection, schedule: Q01DX009 (ip), vehicle: water): 114 % of control
- T/C (dose: 50.0 mg/kg/injection, schedule: Q01DX009 (ip), vehicle: water): 105 % of control and 121 % of control

Structure (SMILES): CCOc1ccc(N=Nc2c(O)n(-c3ccccc3OC)c(=S)n(-c3ccccc3OC)c2=O)cc1
- T/C (dose: 75.0 mg/kg/injection, schedule: Q01DX003 (ip), vehicle: Klucel (hydroxypropylcellulose) (HPC)): 96 % of control
- T/C (dose: 100.0 mg/kg/injection, schedule: Q01DX003 (ip), vehicle: Klucel (hydroxypropylcellulose) (HPC)): 96 % of control
- T/C (dose: 200.0 mg/kg/injection, schedule: Q01DX003 (ip), vehicle: Klucel (hydroxypropylcellulose) (HPC)): 91 % of control

Structure (SMILES): Nc1ccnc(OCc2ccccc2)n1
- T/C (dose: 100.0 mg/kg/injection, schedule: Q01DX001 (ip), vehicle: saline with Tween-80): 100 % of control
- T/C (dose: 200.0 mg/kg/injection, schedule: Q01DX001 (ip), vehicle: saline with Tween-80): 100 % of control

Structure (SMILES): CN(C=O)c1cc([N+](=O)[O-])ccc1OCc1ccccc1
- T/C (dose: 50.0 mg/kg/injection, schedule: Q01DX001 (ip), vehicle: saline): 100 % of control
- T/C [1]: 96 % of control
- T/C [3]: 92 % of control
- T/C [5]: 94 % of control

Structure (SMILES): CC(Cl)CN(Cc1cc(O)c(CN(CC(C)Cl)CC(C)Cl)cc1O)CC(C)Cl (centres undefined)
- T/C (dose: 50.0 mg/kg/injection, schedule: Q01DX001 (ip), vehicle: carboxymethylcellulose (CMC)): 105 % of control
- T/C [9]: 94 % of control
- T/C [10]: 95 % of control
- T/C [11]: 90 % of control
